Source: BindingDB's records for doi:10.1016/S0960-894X(97)10080-4 (1997)

Experiment: Tested for functional activity against neuronal nicotinic acetylcholine receptor(nAChR) expressed in K177 cells using isotopic rubidium efflux assay.

c1cnc2cc([C@@H]3CCCN3)oc2c1 [(S)-2-Pyrrolidin-2-yl-furo[3,2-b]pyridine]
EC50: > 1000 µM
